The text below walks through data of a melting point compilation (Tetko et al.; mined from patent text by program, amines drawn as free bases though some values may be those of a salt).

On to `CCN(CC)c1ccc(C=NNC(=O)c2ccc(O)cc2)cc1`, for which the melting point came out at 228 °C.

Take `Cc1ccccc1N1CCN(S(=O)(=O)CC23CCC(CC2=O)C3(C)C)CC1` (stereo not given): the melting point fell in the range of 112 to 114 °C.

On to `CCn1c(=O)c2[nH]c(C(F)=Cc3ccccc3)nc2n(CC)c1=O`, for which the melting point was more than 280 °C.

In turn, `COC(=O)c1cc(CCl)ccc1OCc1nc(-c2ccco2)oc1C` registered a melting point of 107 to 108 °C.

In turn, `CC(O)c1ccc(-c2ccc(N)cc2)o1` (stereo not given) had a melting point of 100 to 104 °C.

Molecule `O=CN1CC2CC2(c2ccc(O)cc2)C1` (stereo not given) gave a melting point of 166 to 167 °C.

`Clc1ccc2nc(-c3cccnc3)[nH]c2c1` had a melting point of 244 to 246 °C.

`COc1ccc(-c2ccc(C(C)C=O)cc2F)cc1` (stereo not given) registered a melting point of 55 to 59 °C.

In the case of `OC1(c2cc(F)cc(CC#COC#CCc3cc(F)cc(C4(O)CCOCC4)c3)c2)CCOCC1`, the melting point is 120 to 122 °C.

In the case of `COCc1nnc(NCCCN2CC3CCC(CC3)C2)c2cc3ccccn3c12`, the melting point fell in the range of 229 to 232 °C.

`CCCc1c(OC(C(=O)O)c2ccc(Cl)cc2)ccc(C(C)=O)c1O` (stereo not given) registered a melting point of 163 to 164 °C.

Molecule `Cc1nc2ccccc2c(N)c1C(C)O` (stereo not given) showed a melting point of 214 °C.

For `COc1ccc(N2CCN(Cc3coc4c(OC)cccc34)CC2)cc1`, the melting point is 126 to 127 °C.

In turn, `COC(=O)C=C1CCC(c2ccc(O)cc2)CC1` (stereo not given) showed a melting point of 151 to 152 °C.

The molecule `c1ccc2c(c1)nc1n2CCC(CN2CCNCC2)S1` (stereo not given) had a melting point of 151 to 153 °C.

As to `Nc1cccc(F)c1C(=O)NCC(=O)O`, the melting point lay within 188 to 192 °C.

`CC1(C)Cc2cccc(S(N)(=O)=O)c2S1`: the melting point lay within 102 to 104 °C.

In the case of `COC(=O)CCc1cc2cc(C(F)(F)F)ccc2n1S(=O)(=O)c1ccc2ncsc2c1`, the melting point lay in the range of 130 to 132 °C.

Regarding `CS(=O)(=O)c1ccc(-c2cnn(Cc3c(F)c(F)c(F)c(F)c3F)c(=O)c2-c2ccc(F)cc2)cc1`, the melting point lay within 115 to 116 °C.

With `Cc1c(C(=O)CCl)csc1C(=O)CCl`, the melting point fell in the range of 155 to 156 °C.

Regarding `C=CCNC(=O)Nc1ccc([N+](=O)[O-])cc1O`, the melting point is 135 to 136 °C.

`O=C(N[C@H]1CC[C@H](CCN2CCC(c3cccc4c3CCO4)CC2)CC1)c1ccc(-c2ccccc2)cc1` yielded a melting point of 241 °C.

Turning to `CCS(=O)CCn1nc(-c2cccc(Cl)c2Cl)c(=O)c2cccc(OC)c21` (stereo not given), the melting point lay in the range of 128 to 130 °C.

Molecule `CCCCCCCCCCCCCCCC(=O)NS(=O)(=O)CCCC(=O)O` had a melting point of 156 to 157 °C.

With `CSCCC(NC(=O)c1ccc(Cl)cc1)NC(=NC#N)Nc1cccnc1` (stereo not given), the melting point lay in the range of 104 to 105 °C.

Regarding `CN1CCN(C(=O)OC2c3cc(Cl)ccc3C(=O)N2c2ccc3ccc(Cl)nc3n2)CC1` (stereo not given), the melting point is 280 °C.

The molecule `CC(C=O)n1nnc2ccc(Oc3cc(F)c(C(F)(F)F)c(Cl)c3)cc21` (stereo not given) returned a melting point of 107 to 108 °C.

Turning to `CCOC(=O)N1CCC(=C2c3ccccc3C=Cc3ccccc32)CC1`, the melting point lay in the range of 123 to 124 °C.

`CC(C)(C)C(=O)Nc1c(F)cc(F)cc1C#Cc1ccc(SC2CCOCC2)cc1` registered a melting point of 148 to 149 °C.

The molecule `COc1cc(OC)c(OC)cc1C=C1CCc2c1oc1ccc(C(=O)O)cc1c2=O` displayed a melting point of 311 to 313 °C.

In turn, `CCOC(=O)CNc1ncccc1NC(=O)c1ccc(F)cc1` registered a melting point of 127 to 128 °C.

The molecule `CC(C)c1[nH]n(-c2c(Cl)cc(Cl)cc2Cl)c2nc(Cc3ccc(NC(=O)N4CCN(C)CC4)cc3)nc(=O)c1-2` yielded a melting point of 251 to 253 °C.

On to `CC1(C)CC(=O)C2=C(C1)NC1=C(C(=O)CC(C)(C)C1)C2c1ccc(Cl)c(Sc2ccccc2)c1`, for which the melting point lay in the range of 202 to 204 °C.

`CCC(CC)(C(=O)OC1CC(C)(C)N(OCc2ccccc2)C(C)(C)C1)C(=O)OC1CC(C)(C)N(OCc2ccccc2)C(C)(C)C1` showed a melting point of 122 to 123 °C.

For `CC(C)CC(CN(C)C)(C(=O)O)C(=O)O`, the melting point is 134 to 137 °C.

The molecule `Clc1ccc(Nc2nnc(Cc3ccncc3)c3cnccc23)cc1` gave a melting point of 227 to 228 °C.

On to `O=[N+]([O-])c1ccc(OCc2ccc(Cl)nc2)cc1F`, for which the melting point worked out at 174 °C.

Take `CCCCc1nc2c(c(C)c(C)n3nnnc23)n1CC(C)(C)N`: the melting point lay within 144 to 147 °C.

Consider `CSC(CC(=O)O)c1ccncc1` (stereo not given), for which the melting point lay in the range of 187 to 189 °C.

`C=CCN(CC=C)c1nc(NC(=O)CC)n2oc(=O)nc2n1`: the melting point lay in the range of 157 to 159 °C.

Take `C=C(C)Cc1c(C)c(NC(=O)CC(C)(C)C)c(C)c(Cc2ccc(C(C)C)cc2)c1O`: the melting point was in the range of 124 to 125 °C.

Molecule `Cc1cnccc1-c1sc(NC(=O)c2ccncc2)nc1-c1ccco1` displayed a melting point of 156 to 157 °C.

In turn, `CCOC(=O)c1ccc2cc(OC(=S)N(C)C)ccc2c1` gave a melting point of 128 to 130 °C.

`CCC(CC)Oc1cc(C)nc(Nc2c(C)cc(C)cc2C)c1NC(=O)CCl` came in with a melting point of 79 to 82 °C.

`O=C(O)C1(O)CCCN(Cc2ccccc2)C1` (stereo not given) had a melting point of 104 °C.

For the molecule `CC(=O)Nc1cc(Oc2ccc3c(c2)CCN3C(=O)Nc2ccc(OC(C)(C)C(=O)O)c(C(F)(F)F)c2)ncn1`, the melting point fell in the range of 219 to 220 °C.

The molecule `O=[N+]([O-])C=C1NCCN1Cc1ccc(OCC(F)(F)F)nc1` showed a melting point of 132 to 135 °C.

As for `Cc1ccc(SC2CC(=O)N2CC(=O)NCCCCCCc2ccc(Cl)cc2)cc1` (stereo not given), the melting point was 63 to 65 °C.

Turning to `CCC(=O)c1cc(Cl)c(O)c(Cl)c1`, the melting point fell in the range of 50 to 52 °C.

`Cc1ccc(C2CCC(=O)Nc3ccccc32)cc1` (stereo not given) came in with a melting point of 178 to 181 °C.

Molecule `Cc1ncccc1Oc1ccc(N)cn1` showed a melting point of 95 to 100 °C.

`Cc1cccc(C)c1NC(=O)CC1CCN(CCC2CCOc3ccccc32)CC1` (stereo not given) returned a melting point of 136 °C.

Turning to `CC1(C)CC(N2CCCC2)=CC(=C(C#N)S(C)(=O)=O)C1`, the melting point was in the range of 260 to 261 °C.

Turning to `O=C(CN1CCNCC1)Cn1c2ccc(Br)cc2c2cc(Br)ccc21`, the melting point turned out to be 175 °C.

As to `CCOC(=O)c1ccc2cccc(N)c2c1`, the melting point lay within 97 to 98 °C.

Consider `COC(=O)C(=O)c1ccc(OCCOc2cc(OC)c(OC)c(OC)c2)cc1`, for which the melting point was in the range of 82 to 83 °C.

Molecule `COc1cc(NC(=O)OC(C)CN2CCC(c3nn(C)c4cc(F)ccc34)CC2)cc(OC)c1OC` (stereo not given) had a melting point of 74 to 77 °C.

Consider `OCC1CCC(N2CCC(=C3c4ccc(F)cc4Sc4ccc(C(F)(F)F)cc43)CC2)CC1` (stereo not given), for which the melting point fell in the range of 208 to 211 °C.

The molecule `CCCCc1nc2c(N)nc3ccc(OCc4ccccc4)cc3c2n1CCCCNS(=O)(=O)c1ccccc1` gave a melting point of 204 to 205 °C.

Regarding `CC(=O)c1ccc2c(c1)C(c1ncccc1C)CC(C)(C)O2` (stereo not given), the melting point was in the range of 87 to 88 °C.

For `Cc1cn(N)c(=O)n1C`, the melting point was 115 to 119 °C.

In turn, `O=C1C(Cl)=C(c2ccccc2)C1(F)F` returned a melting point of 77.5 to 78 °C.

The molecule `CCOC(=O)c1cn(-c2ncc(F)c(NC(C)(C)C)n2)c2c(Cl)c(F)c(F)cc2c1=O` yielded a melting point of 201 to 205 °C.

`Cc1nn(C)c(=O)n1-c1ccc([N+](=O)[O-])cc1` displayed a melting point of 153 °C.

In the case of `CNc1ccccc1CS(=O)c1nccn1-c1cc(C)ccn1` (stereo not given), the melting point fell in the range of 112 to 114 °C.

`COc1cc(COc2nn(Cc3ccccc3)cc2C(C)=O)ccc1OCc1nc(-c2ccco2)oc1C` returned a melting point of 144 to 145 °C.

`COc1cc(OC)c(NC(=S)Nc2ccccc2)cc1O` came in with a melting point of 152 to 154 °C.

The molecule `FC(F)(F)c1cccc(C2=NOC(CNC(=S)N3CCOCC3)C2)c1` (stereo not given) showed a melting point of 118 to 120 °C.

On to `CC(=O)OCCn1c(=O)c(C#N)c(N2CCN(C(=O)c3cccs3)CC2)c2cccnc21`, for which the melting point came to 189 °C.

`CCCOCCOc1ccccc1-c1ccc2c(c1)C=C(C(=O)Nc1ccc(CN(C)C3CCOCC3)cc1)CCS2(=O)=O` had a melting point of 164 to 166 °C.

Molecule `BrCc1ccc(-c2nc3ccccn3n2)cc1` gave a melting point of 196 °C.

`O=C(Nc1cccnc1NCc1ccc(Cl)cc1)c1ccccn1` yielded a melting point of 123 to 125 °C.

`Cc1ccc(S(=O)(=O)C=C(Cl)C#N)cc1`: the melting point came out at 78 °C.

As to `CN(C)CCOC(=O)c1cccc2cc(-c3ccccc3)oc12`, the melting point is 56.5 to 58 °C.

`Cc1cc(Oc2c(Cl)cc(C(F)(F)F)cc2Cl)nn1C(=O)NCC1CCCO1` (stereo not given) displayed a melting point of 74 to 76 °C.

In turn, `CC(C)C[C@H](NC(=O)OCc1ccccc1)C(=O)N[C@@H](Cc1ccccc1)C(=O)O` registered a melting point of 120 to 122 °C.

Molecule `CCCCS(=O)(=O)NC1Cc2ccc(C(C)=O)cc2C1` (stereo not given) displayed a melting point of 90 to 92 °C.

`Cc1sc2ccc(Cl)cc2c1C1=NCCN1` came in with a melting point of 190 to 192 °C.

On to `CCOC(=O)c1cn(-c2nc(N)c(Cl)cc2F)c2c(Cl)c(F)c(F)cc2c1=O`, for which the melting point was 186 to 189 °C.

`OCc1cc2cccc(Br)c2s1` had a melting point of 82 to 83 °C.

With `COc1c2c(c(OC)c(OC)c1OC)CCC(=O)CC2`, the melting point was in the range of 77 to 78 °C.

`CCN1CCC(N2C(=O)c3ccc([N+](=O)[O-])cc3C2=O)CC1` registered a melting point of 153 to 155 °C.

In the case of `COc1ccc(C2=NN(C3CCN(S(=O)(=O)c4cccc(C)c4)CC3)C(=O)C(C)(C)C2)cc1OC`, the melting point is 150 to 152 °C.

Regarding `CC(=O)OC(C)c1nccc2[nH]c(=O)ccc12` (stereo not given), the melting point fell in the range of 185 to 187 °C.

Molecule `Cc1ccc(N)c(OCCOc2cc(C(=O)OC(C)(C)C)ccc2N)c1` returned a melting point of 154 to 156 °C.

In turn, `C1=CC2=Nc3ccccc3OCN2C=C1` showed a melting point of 125 to 127 °C.

As for `CCCCc1oc2ccccc2c1-c1ncc(-c2ccc3cc(OCc4ccc(C(=O)OC)cc4)ccc3c2)o1`, the melting point lay in the range of 169 to 170 °C.

Molecule `CCCc1nn(C)c2c(=O)[nH]c(-c3cc(NS(C)(=O)=O)ccc3OCC)nc12` came in with a melting point of 205 to 206 °C.

In turn, `CC(=O)OC1=CC2=CCC3C4CC(C)C(O)(CC(=O)OC(=O)C(C)(C)C)C4(C)CC4OC43C2(C)C=C1` (stereo not given) had a melting point of 108 to 120 °C.

In the case of `CSc1ccc(C=CC(=O)c2cccc([N+](=O)[O-])c2)cc1`, the melting point is 150 °C.

By melting point is commonly meant the temperature, or range, at which the solid turns liquid.
